Experimental data reported in article PMC11233931, “Remodeling tumor‐associated macrophage for anti‐cancer effects by rational design of irreversible inhibition of mitogen‐activated protein kinase‐activated protein kinase 2” (MedComm, 2024).

Assays:
[1] = Cell viability assay (CCK-8), HEK293; format: cell-based; details: HEK293 cells (embryo kidney), HEK293, human embryo kidney, read-out: IC50 (μM) mean ± SD, cytotoxicity
Method: In cellular experiments, cells are seeded into either 6-well or 96-well plates and incubated overnight, proceeding with treatments as described in the figure legends or methods section. The cell inoculation numbers are outlined as follows: For assays measuring cell viability, between 3,000 to 5,000 cells are seeded per well in 96-well plates. For other cellular assays, the seeding density ranges from 5×10^5 to 1×10^6 cells per well in 6-well plates.
(§1) Cells was plated into 96-well plates and incubated overnight prior to introduction of varying concentrations of compounds or control solvent. Following a 72-hour exposure period, cell viability was determined using a Cell Counting Kit-8 assay (Life-iLab, China). Dose-response curves were fitted using a four-parameter method facilitated by SoftMax Pro, which was subsequently used for the computation of IC50 values.

[2] = tested on: MRC1 and ARG-1 mRNA in THP-1 monocyte induced macrophages; test: RT-PCR of M2 markers in IL-4/IL-13 stimulated THP-1 macrophages; format: cell-based, human; details: IL-4/IL-13 20 ng/mL
Text: A previous study has reported that MK2 fostered M2‐like polarization of TAMs, driving a protumor and proangiogenic phenotype which in turn accelerates tumor progression.[21] We thus assessed the influence of compound 11 on macrophage polarization and function. Our experiments used human THP‐1 monocyte induced macrophages, mouse RAW264.7 macrophages, and mouse bone marrow‐derived macrophages (BMDM). These cells were induced into M2‐like macrophages using the classic IL‐4 and IL‐13 stimuli.
FIGURE 5 Inhibition of pro‐tumorigenic M2‐like polarization in macrophages by compound 11. (A–C) RT‐PCR analysis highlights the impact of compound 11 on MRC1 and ARG‐1 mRNA expression in various macrophage cells treated with IL‐4/IL‐13 alone or combined with compound 11 for 12 h or 24 h. […] Data are shown as the mean ± SD. ^* p < 0.05; ^*** p < 0.001 versus the vehicle group, determined by unpaired t test. […]
Total RNA was extracted from cultured cells using the EZ‐press RNA Purification Kit (EZBioscience). Complementary DNA was synthesized using the ABScript III RT Master Mix for qPCR with gDNA remover (ABclonal Technology) and was quantified with primers listed in Table S5. The relative mRNA expression levels were quantified through qPCR using the SYBR green gene expression assay (ABclonal Technology).

[3] = Cytotoxicity assays, summary over all cell lines; format: cell-based; details: range over three normal and six tumor cell lines
Text: MK2, as a pivotal regulator of the well‐acknowledged p38 inflammation signaling pathway, is increasingly recognized for its critical role in the initiation and progression of cancer. Through an analysis of the clinical data from the TCGA database, we found the significant impact of MK2 on cancer. […] Moreover, macrophages are abundant in cancer, and such abundance correlates with poor prognosis in most malignancie.[17], [18], [19], [20] […] Additionally, the knockdown of MK2 using specific siRNA in macrophages also led to the downregulation of M2 markers. […] Moreover, compound 11’s effect on macrophages extended to inhibition of typical proinflammatory cytokines and crucial factors in inflammation‐driven tumorigenesis. […] These findings bolster the rationale for pursuing the development and application of MK2 inhibitors in the treatment of inflammation‐driven or macrophage‐rich cancers.
as §1

[4] = tested on: p-Hsp27; test: Cellular washout assay, p-Hsp27 by western blot; format: cell-based; details: 1 h pretreatment, then LPS
Method: FIGURE 4 Targeting cellular MK2 signaling with irreversible inhibition by compound 11. (A and B) RT‐PCR analysis of IL‐1β, TNF‐α, and IL‐6 expression in Lipopolysaccharides (LPS)‐stimulated THP‐1 (A) and RAW264.7 (B) Cells, with pre‐treatment of compound 11 for 3 h followed by LPS (3 h) stimulation. (C) The inhibitory effects of compound 11 on TNF‐α and IL‐6 production in LPS‐stimulated RAW264.7 macrophages for 24 h, measured by ELISA. (D and E) Compound 11, alongside CC‐99677 and PF‐3644022, suppressed MK2 pathway activation, validated through western blot analysis post‐LPS stimulation. Cells were preincubated with the specified compounds for 1 h prior to LPS stimulation (100 ng/mL, 30 min). (F) Distinguishes the mode of action between compound 11 and CC‐99677. The complex structure of a small molecule and MK2 (3R2Y) with the same parent nucleus as compound 11 is shown in cyans, and the complex structure of a small molecule and MK2 (3FYJ) with the same parent nucleus as CC‐99677 is shown in orange. (G–I) The effect of indicated inhibitor on Hsp27 phosphorylation following inhibitor washout. Cells were pretreated with indicated compounds for 1 h and then washed to remove free compound and incubated for a further indicated time before activation with LPS. In (A–C), LPS (100 ng/mL) served as the stimulation control, while untreated cells were the baseline control. The data represent as mean ± SD from triplicates, with statistical analysis conducted via one‐way analysis of variance (ANOVA) (^## p < 0.01, ^### p < 0.001 vs. stimulation control; ^***p < 0.001 vs. baseline control).
Furthermore, to validate the irreversible mechanism of action of compound 11 at the cellular level, we performed a cellular washout assay and assessed p‐Hsp27 levels. The established MK2 irreversible inhibitor CC‐99677 served as positive control, while the reversible ATP‐competitive inhibitor PF‐3644022 was used as negative control. […] In contrast, only 1 h after PF‐3644022 washout, p‐Hsp27 level was totally recovered (Figure 4I).
After the treatment outlined in the figure legends, cells were lysed using 1× sodium dodecyl sulfate (SDS) solution. The lysates were then subjected to SDS‐polyacrylamide gel electrophoresis for separation, followed by transferring onto nitrocellulose membranes. The membranes were incubated with primary antibodies specific to phospho‐MK2, phospho‐Hsp27, MK2, Hsp27, GAPDH, and β‐actin (Cell Signaling Technology), followed by horseradish peroxidase‐conjugated anti‐mouse or anti‐rabbit IgG secondary antibodies. Protein bands were detected using an enhanced chemiluminescence detection reagent (Thermo Fisher Scientific).

## C=CC(=O)Nc1cc(-c2cc(-c3cc4c([nH]3)CCNC4=O)ccn2)ccc1OC(F)(F)F [compound 11]
[1]
  IC50 at 72 h: 29.9 ± 7.2 µM
[2]
  effect on transcriptional level of MRC1 and ARG-1: significantly suppressed
[3]
  IC50 at 72 h: 30 to 50 µM
[4]; 3 h
  p-Hsp27 level 3 h after inhibitor washout: still significantly inhibited
[4]
  time after inhibitor washout at which p-Hsp27 level recovered: 24 h
